Experimental data taken from PMC12147183, “Lacritin cleavage-potentiated targeting of iron - respiratory reciprocity promotes bacterial death” (The Journal of Biological Chemistry, 2025).
“Also recorded” adds a separate entry of the source. Peptide text beside a SMILES is read from it. * marks the point of attachment. FITC = O=C1OC2(c3ccc(O)cc3Oc3cc(O)ccc32)c2ccc(NC(=S)*)cc21; Ahx = NCCCCCC(=O)O

Columns and labels:
P. aeruginosa PA14 [1] = assay: Imaging flow cytometry of peptide entry; format: cell-based, Pseudomonas aeruginosa; conditions: 100 or 10 μM, PA14 10^6 cfu/ml, 1 h at 35 °C, trypsin EDTA to remove surface peptide, no ethanol, n = 3
Method: 0.5 ml of 10^6 cfu/ml PA14 cells in 1 mM Na2HPO4, 0.18 mM KH2PO4, 0.27 mM KCl, and 13.7 mM NaCl (pH 7.2) were incubated for 1 h at 35 °C with 10 or 100 μM FITC-N-104 (without, or as a positive control with 70% ethanol) or with the negative control FITC-C-95. Cells were subsequently washed in the same buffer, pelleted, treated with 100 μl of 0.25% trypsin EDTA (Gibco, 25200-056) for 5 min at 35 °C to remove surface-attached peptide, further washed and pelleted, resuspended in 100 μl of the same buffer for fixation with an equal volume of 8% formaldehyde (18,814, Polysciences Inc) and then imaged using an Amnis Imagestream X Mark II imaging flow cytometer. 500 to 1000 counts were analyzed per replicate. To ensure the exclusion of debris and out-of-focus cells, Gradient-RMS (average slope spanning three pixels in an image; 0–100) versus Area (number of pixels in an image reported in square microns; 1–200) of channel one was plotted for each experiment with more than 85% of the data falling within the cells-in-focus gate. The fluorescence intensity values of FITC-positive cells (Intensity-MC, channel 2) were analyzed using the IDEAS version 6.2 program (Amnis, Seattle WA) and plotted as histograms with a bin number of 100. FITC-positive cells were selected based on histograms generated from the positive control sample.

[2] = for solubility in common solvents: water, DMSO, methanol, isopropanol, acetonitrile
From the text: Guided by TMHMM v 2 and DeepTMHMM 1.0.24, we synthesized peptides corresponding to PotH’s predicted outer loops 2 ([…]) and outer loop 3 ([…]). Fifty-three amino acid PotH's OL1 was not synthesized with predicted poor solubility. We also synthesized peptides corresponding to FeoB's predicted outer loop 1 ([…]), outer loop 2 ([…]), outer loop 3 ([…]), and outer loop 5 (ATFAA). […] For these, all amino and carboxy termini were acetylated and amidated, respectively (Supporting Information Reagents Table). All synthesized peptides were aliquoted and stored lyophilized at −80 °C in a dry environment.

P. aeruginosa PA14 [3] = assay: SYTOX Orange PA14 membrane disruption assay; conditions: 25 μM peptide, PA14 10^7 cfu/ml, 1 h at 35 °C, 5 μM SYTOX Orange; positive control 70% ethanol
[4] = test system: ^14C-spermidine uptake by PA14; format: cell-based, Pseudomonas aeruginosa; conditions: 25 μM peptide, n = 6
Method: 100 μl aliquots (0.8 × 10^8 cfu) of PA14 cell cultures in 1 mM Na2HPO4, 0.18 mM KH2PO4, 0.27 mM KCl, 13.7 mM NaCl without or with 1, 10, 25, 50 or 100 μM N-104 (or N-80/C-25 or C-95) for 45 min at 35 °C were incubated with 1 μl of 10 mM [1,4-^14C]putrescine (0.1 mCi/ml; ARC-0245–250, American Radiolabeled Chemicals) or [1,4-^14C]spermidine (0.1 mCi/ml; ARC-3138–50, American Radiolabeled Chemicals) for 15 min at 35 °C. Cell pellets were washed four times with 100 μl of 10 mM Na2HPO4, 1.8 mM KH2PO4, 2.7 mM KCl, 137 mM NaCl (pH 7.2) and then transferred to 4 ml of scintillation fluid (1200.437, PerkinElmer OptiPhase HiSafe 3) for analysis in a Beckman Coulter LS6500. Also assessed was radioactivity from the last wash. Single-molecule transportation per cell was estimated using standard curves for each radiolabeled polyamine.

Fe^2+ uptake by PA14 = format: cell-based, Pseudomonas aeruginosa; conditions: 25 μM peptide, n = 3
Method: Iron depletion was induced in PA14 cells (5 × 10^9 cfu in 10 ml 10 mM Na2HPO4, 1.8 mM KH2PO4, 2.7 mM KCl, 137 mM NaCl (pH 7.2) by treatment with the chelator 1 mM 2,2′-bipyridyl at room temperature for 1 h. After washing twice with 0.9% NaCl, cells were suspended in 1 ml of 1 mM Na2HPO4, 0.18 mM KH2PO4, 0.27 mM KCl, 13.7 mM NaCl for treatment without or with 1, 10, 25, 50 or 100 μM of N-104 (or negative control N-80/C-25 or C-95) for 45 min at 35 °C, incubated at the same temperature for 15 min with 100 μM FeSO4 and 13 mM ascorbic acid, washed twice with 1 mM Na2HPO4, 0.18 mM KH2PO4, 0.27 mM KCl, and 13.7 mM NaCl, and pelleted at 12,000g. The ferrozine assay ([54]) was subsequently employed. Briefly, cells in pellets were lysed with 20 μl of 50 mM NaOH, partially neutralized with 20 μl of 10 mM HCl, subjected to iron release with 20 μl of acidified 0.29 M KMnO4 for 30 min at 80 °C, cooled to room temperature, incubated with 7 μl of 30 mM ferrozine, 1.1 μl of 180 mM neocuproine, 15 μl of 5 M ammonium acetate and 15 μl of 1 M ascorbic acid for 30 min at room temperature and then centrifuged at 21,000g for 10 min. Cellular iron uptake could then be assessed from the supernatant OD565. Single-molecule transport per cell was estimated using a standard curve.

P. aeruginosa PA14 [5] = assay: PA14 viability (Alamar Blue, CFU) with exogenous polyamines; format: cell-based, Pseudomonas aeruginosa; conditions: Alamar Blue and CFU; for protection of PA14 against 5 μM N-104 killing: 5 to 50 μM exogenous polyamine, n = 3
wild-type E. coli K-12 = assay: Alamar Blue viability assay of wild-type E. coli K-12; format: cell-based, Escherichia coli; conditions: 100 μM, wild-type E. coli K-12 10^6 cfu/ml, 37 °C, hourly, n = 3
P. aeruginosa PA14 [6] = format: cell-based, Pseudomonas aeruginosa
Method: Janelia Fluor 549-N-104 and -C-95 (each 25 μg) in 20 μl of M9 minimal salts were incubated with ∼3.75 × 10^9 cfu of pelleted PA14 cells for 1 h at 35 °C, washed four times with filtered 10 mM Na2HPO4, 1.8 mM KH2PO4, 2.7 mM KCl, 137 mM NaCl (pH 7.2), and then treated with 5 μM SYTOX Green to assess membrane integrity. Stained cells (1 μl) were immobilized on coverslip supported 1.5% agarose pads for imaging on a custom-built inverted fluorescence microscope, using 1 W/cm^2 of 561-nm laser light (Genesis MX561 MTM, Coherent) to excite Janelia Fluor 549 Maleimide and 4 mW/cm^2 of 488-nm laser light (Coherent) to excite SYTOX Green. Emitted light collected using an oil immersion objective (PLSAPO, 60×, 1.4 NA) was passed through a filter set (zt440/488/561rpc, Chroma Technology) to block excitation light with separation of Janelia Fluor 549 Maleimide and SYTOX Green emission using a diochroic beam splitter (T5g0lpxr-uf3, Chroma Technology) as collected on separate sCMOS cameras (ORCA-Flash 4.0 V2, Hamamatsu Photonics). Brightfield images were collected to obtain the total number of cells in each field of view.

P. aeruginosa PA14 [7] = conditions: 0-25 μM FITC-N-104 or 2-25 μM Janelia Fluor 549-tagged N-104, PA14 10^6 cfu/ml, 8 h
Method: After overnight incubation at 37 °C, plates were analyzed on a ChemiDoc XRS (Bio-Rad).

Compound: CC(C)C[C@H](NC(=O)[C@H](CCCCN)NC(=O)[C@H](CCC(N)=O)NC(=O)[C@H](C)NC(=O)CCCCCNC(=S)Nc1ccc2c(c1)C(=O)OC21c2ccc(O)cc2Oc2cc(O)ccc21)C(=O)N[C@@H](CC(C)C)C(=O)N[C@@H](CCCCN)C(=O)N[C@@H](CCCCN)C(=O)N[C@@H](Cc1ccccc1)C(=O)N[C@@H](CO)C(=O)N[C@@H](CC(C)C)C(=O)N[C@@H](CC(C)C)C(=O)N[C@@H](CCCCN)C(=O)N1CCC[C@H]1C(=O)N[C@@H](Cc1c[nH]c2ccccc12)C(=O)N[C@@H](C)C(=O)O [FITC-N-104] ({FITC-Ahx}-AQKLLKKFSLLKPWA-OH)
- intracellular FITC fluorescence (P. aeruginosa PA14 [1]): substantial intracellular; also recorded: In contrast to FITC-C-95, substantial intracellular FITC-N-104 fluorescence was apparent at either 100 or 10 µM concentrations

Compound: CC[C@H](C)[C@H](NC(C)=O)C(=O)N[C@@H](CC(N)=O)C(=O)N[C@H](C(=O)NCC(=O)NCC(=O)N[C@@H](C)C(=O)N[C@@H](CC(C)C)C(=O)N[C@@H](CCC(N)=O)C(=O)N1CCC[C@H]1C(N)=O)[C@@H](C)CC [FeoB OL1 peptide] (Ac-INIGGALQP-NH2)
- solvents in which solubility was identified [2]: formic or acetic acid
- solubility in common solvents [2]: not water, DMSO, methanol, isopropanol or acetonitrile soluble

Compound: CC(=O)NCC(=O)N[C@@H](C)C(=O)N[C@@H](Cc1ccccc1)C(=O)N[C@@H](Cc1ccccc1)C(=O)NCC(=O)N[C@@H](CCC(N)=O)C(=O)NCC(=O)NCC(=O)N[C@@H](C)C(N)=O [FeoB OL3 peptide] (Ac-GAFFGQGGA-NH2)
- solvents in which solubility was identified [2]: ammonia water and acetic acid
- solubility in common solvents [2]: not water, DMSO, methanol, isopropanol or acetonitrile soluble

Compound: CSCC[C@H](NC(=O)CNC(=O)[C@H](CCCCN)NC(=O)CNC(=O)[C@H](C)NC(=O)[C@H](CCCCN)NC(=O)[C@H](C)NC(C)=O)C(=O)N[C@@H](Cc1c[nH]cn1)C(=O)NCC(=O)NCC(=O)N[C@H](C(=O)N1CCC[C@H]1C(=O)NCC(=O)NCC(N)=O)C(C)C [N-80/C-25, reference compound] (Ac-AKAGKGMHGGVPGG-NH2)
- membrane disruption (SYTOX Orange uptake) (P. aeruginosa PA14 [3]): not membrane disruptive
- effect on ^14C-spermidine uptake [4]: also inhibitory
- effect on exogenous Fe^2+ uptake (Fe^2+ uptake by PA14): partially inhibitory

Compound: NCCCCN [Putrescine]
- protection of PA14 against 5 μM N-104 killing (P. aeruginosa PA14 [5]): did not offer the same benefit
- toxicity to PA14 (P. aeruginosa PA14 [5]; 100-2000 µM polyamine): nor was toxic at high concentrations

Compound: CC1(C)S[C@@H]2[C@H](NC(=O)[C@H](N)c3ccccc3)C(=O)N2[C@H]1C(=O)O [ampicillin]
- bacterial metabolic activity (Alamar Blue) (wild-type E. coli K-12): inhibitory

Compound: NCCCCNCCCN [spermidine]
- protection of PA14 against 5 μM N-104 killing (P. aeruginosa PA14 [5]): increasingly protected
- concentration at which toxic to PA14 (P. aeruginosa PA14 [5]; 100-2000 µM polyamine): exceeding 100 μM

Compound: JaneliaFluor-CAQKLLKKFSLLKPWA [JanFl-N-104]
- cellular staining pattern (P. aeruginosa PA14 [6]): peripheral internal ring
- effect of tagging on N-104 activity in CFU assay (P. aeruginosa PA14 [7]): partially affected

Compound: JaneliaFluor-CEDASSDSTGADPAQEAGTSKPNEE [JanFl-C-95, Cys(N)-C-95 conjugated to Janelia Fluor 549 maleimide, reference compound]
- cellular staining pattern (P. aeruginosa PA14 [6]): lacked staining
